Assays:
whole blood = experiment: Whole blood assay: oxygen equilibrium curves of whole blood; format: cell-based, human (homozygous sickle cell patients); details: compound at 1000 μM; hematocrit 20%, 1 hour at 37° C.
Experimental: Oxygen Equilibrium Curves (OEC) of whole blood before and after treatment with different concentrations of substituted benzaldehyde compounds were performed as follows using a HEMOX analyzer (TCS Scientific, New Hope, Pa.). Blood samples from homozygous sickle cell patients were obtained though the Hemoglobinopathy Center at Children's Hospital Oakland Research Institute (CHORI) with Institutional Review Board approval. The hematocrit was adjusted to 20% using autologous plasma and the blood samples were incubated for 1 hour at 37° C. in absence or presence of compounds. 100 μl of these samples were added to 5 mL of Hemox buffer (30 mM TES, 130 mM NaCl, 5 mM KCl, pH=7.4) at 37° C. and then transferred to the Hemox sample chamber. The samples were saturated with oxygen by flushing with compressed air for 10 minutes. The samples were then flushed with pure nitrogen and the respective absorbances of oxy- and deoxy-Hb are recorded as a function of the solution pO2. The oxygen equilibrium data were then fitted to the Hill Model to obtain values for p50. The deoxygenation curves for both whole blood alone (control) and whole blood in the presence of the compound were collected with the TCS software.
Table 5 below lists the delta p50% values where + indicates a delta p50% of between 0 and 29, ++ indicates a delta p50% of between 30 and 50, and +++ indicates a delta p50% of 50 or greater. Unless noted otherwise, the compounds in Table 2 were tested at 1000 μM.

[1] = target: T1, purified Hemoglobin S (HbS) (Homo sapiens, UniProt P68871+P69905, E7V); experiment: Modulation of hemoglobin oxygen affinity: oxygen equilibrium curves (HEMOX) in purified HbS; format: biochemical, human (homozygous sickle cell patients); details: compound at 30 μM; 25 μM purified HbS, 45 min at 37° C.
T1 construct: HbS was purified by a modified procedure; from tissue; host or cells: blood of homozygous sickle cell patients (CHORI); for the polymerization assay purified by the CRO VIRUSYS
In short: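 HbS from homozygous sickle cell patient blood, 25 μM in HEMOX buffer pH 7.4, incubated 45 min at 37° C with compound (30 μM unless noted). Air-saturated then deoxygenated with N2; p50 from Hill fit; delta p50% = (control p50 − treated p50)/control p50 × 100.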

HbS/A = target: T2, HbS/A (Homo sapiens, UniProt P68871+P69905, E7V); experiment: R/T assay (relaxed-to-tense transition under deoxygenated conditions); format: biochemical, human (homozygous sickle cell patients); details: 3 μM HbS/A, % R remaining vs no treatment
T2 construct: A mixture of HbS/A was purified from blood; from tissue; host or cells: blood of homozygous sickle cell patients (CHORI)
Experimental: A relaxed-to-tense transition assay (“R/T assay”) was used to determine the ability of substituted benzaldehyde compounds to maintain the high-oxygen affinity relaxed (R) state of hemoglobin under deoxygenated conditions. This ability can be expressed as a “delta R” value (i.e., the change in the time-period of the R state after hemoglobin is treated with a compound, as compared to the period without treatment with the compound). Delta R is the % R to remaining after the compounds treatment compared with no treatment (e.g. if R % without treatment is 8% while with treatment with a target compound is 48% R at 30 μM, then % R is 40% for that compound.
A mixture of HbS/A was purified from blood obtained from homozygous sickle cell patients though the Hemoglobinopathy Center at Children's Hospital Oakland Research Institute (CHORI) with Institutional Review Board approval. HbS/A (at a final concentration of 3 μM) was incubated for 1 hr at 37° C. in presence or absence of compounds in […] potassium phosphate buffer, pH=7.4 and 30 μM 2, 3 diphosphoglycerate (DPG) in 96 well plates in a final volume of 160 μl. Compounds were added at different concentrations (3 μM to 100 μM final concentrations). Plates were covered with a Mylar film. After incubation was completed the Mylar cover was removed and the plates were placed in a Spectrostar Nano plate reader previously heated at 37° C. Five minutes later, N2 (flow rate=20 L/min) was flowed through the spectrophotometer. Spectroscopic measurements (300 nm to 700 nm) were taken every 5 min for 2 hours. Data analysis was performed by using linear regression from the data retrieved for all wavelengths.
Table 4 below lists the delta R values where + indicates a delta R of between 0 and 30, ++ indicates a delta R of between 30 and 50, and +++ indicates a delta R of 50 or greater. Unless noted otherwise, the compounds in Table 2 were tested at 30 μM.

| delta p50% [1] | delta R (HbS/A; compound at 30 μM) | delta R (HbS/A; compound at 9 μM) | SMILES | delta p50% Values for Whole Blood Assay (whole blood) |
| --- | --- | --- | --- | --- |
| +++ (a delta p50% of 50 or greater) | ++ (a delta R of between 30 and 50) | – | COc1cc(C=O)c(OCc2cccnc2-c2[nH]ncc2C)cn1 [Compound 132, 2-methoxy-5-((2-(4-methyl-1H-pyrazol-5-yl)pyridin-3-yl)methoxy)isonicotinaldehyde] | ++ (a delta p50% of between 30 and 50) |
| ++ (a delta p50% of between 30 and 50) | – | + (a delta R of between 0 and 30) | COc1cc(C=O)c(OCc2cccnc2-c2ccn(CCC(=O)O)n2)cn1 [Compound 201, 3-(3-(3-((4-formyl-6-methoxypyridin-3-yloxy)methyl)pyridin-2-yl)-1H-pyrazol-1-yl)propanoic acid] | + (a delta p50% of between 0 and 29) |
| ++ (a delta p50% of between 30 and 50) | – | +++ (a delta R of 50 or greater) | COc1cc(C=O)c(OCc2cnc3ccccc3c2)cn1 [Compound 80, 2-methoxy-5-(quinolin-3-ylmethoxy)isonicotinaldehyde] | + (a delta p50% of between 0 and 29) |
| ++ (a delta p50% of between 30 and 50) | – | + (a delta R of between 0 and 30) | Cc1cn[nH]c1-c1ncccc1COc1c[nH]c(=O)cc1C=O [Compound 194, 5-((2-(4-methyl-1H-pyrazol-5-yl)pyridin-3-yl)methoxy)-2-oxo-1,2-dihydropyridine-4-carbaldehyde] | + (a delta p50% of between 0 and 29) |
| ++ (a delta p50% of between 30 and 50) | – | + (a delta R of between 0 and 30) | COc1cc(C=O)c(OCc2cccnc2-c2ccn[nH]2)cn1 [Compound 65, 5-((2-(1H-pyrazol-5-yl)pyridin-3-yl)methoxy)-2-methoxyisonicotinaldehyde] | + (a delta p50% of between 0 and 29) |
| +++ (a delta p50% of 50 or greater) | ++ (a delta R of between 30 and 50) | – | COc1cc(C=O)c(OCc2cccnc2C(C)(C)O)cn1 [Compound 183, 5-((2-(2-hydroxypropan-2-yl)pyridin-3-yl)methoxy)-2-methoxyisonicotinaldehyde] | +++ (a delta p50% of 50 or greater) |
| ++ (a delta p50% of between 30 and 50) | – | + (a delta R of between 0 and 30) | Cc1ccc(OCc2cccc3cnn(C)c23)c(C=O)n1 [Compound 92, 6-methyl-3-((1-methyl-1H-indazol-7-yl)methoxy)picolinaldehyde] | + (a delta p50% of between 0 and 29) |
| ++ (a delta p50% of between 30 and 50) | – | – | Cc1ccc(OCc2ccnc3cccnc23)c(C=O)n1 [Compound 106, 3-((1,5-naphthyridin-4-yl)methoxy)-6-methylpicolinaldehyde] | + (a delta p50% of between 0 and 29) |
| ++ (a delta p50% of between 30 and 50) | – | + (a delta R of between 0 and 30) | COc1cc(C=O)c(OCc2cccnc2-c2cnn(C)c2C)cn1 [Compound 143, 5-((2-(1,5-dimethyl-1H-pyrazol-4-yl)pyridin-3-yl)methoxy)-2-methoxyisonicotinaldehyde] | + (a delta p50% of between 0 and 29) |
| ++ (a delta p50% of between 30 and 50) | – | + (a delta R of between 0 and 30) | Cc1ccc(OCc2nccc3ccccc23)c(C=O)n1 [Compound 93, 3-(isoquinolin-1-ylmethoxy)-6-methylpicolinaldehyde] | + (a delta p50% of between 0 and 29) |
| ++ (a delta p50% of between 30 and 50) | – | ++ (a delta R of between 30 and 50) | COc1cc(C=O)c(OCc2c(-c3ccn[nH]3)ncc3ccccc23)cn1 [Compound 133, 5-((3-(1H-pyrazol-5-yl)isoquinolin-4-yl)methoxy)-2-methoxyisonicotinaldehyde] | + (a delta p50% of between 0 and 29) |
| ++ (a delta p50% of between 30 and 50) | – | ++ (a delta R of between 30 and 50) | COc1cc(C=O)c(OCc2cccc3ocnc23)cn1 [Compound 103, 5-(benzo[d]oxazol-4-ylmethoxy)-2-methoxyisonicotinaldehyde] | + (a delta p50% of between 0 and 29) |
| ++ (a delta p50% of between 30 and 50) | – | ++ (a delta R of between 30 and 50) | COc1cc(C=O)c(OCc2cccnc2-c2ccnn2C)cn1 [Compound 129, 2-methoxy-5-((2-(1-methyl-1H-pyrazol-5-yl)pyridin-3-yl)methoxy)isonicotinaldehyde] | ++ (a delta p50% of between 30 and 50) |
| ++ (a delta p50% of between 30 and 50) | – | – | COc1cc(C=O)c(OCc2cncc(-c3ccnn3C)c2)cn1 [Compound 74, 2-methoxy-5-((5-(1-methyl-1H-pyrazol-5-yl)pyridin-3-yl)methoxy)isonicotinaldehyde] | ++ (a delta p50% of between 30 and 50) |
| +++ (a delta p50% of 50 or greater) | ++ (a delta R of between 30 and 50) | – | COc1cc(C=O)c(OCc2cccnc2-c2ccnn2C2CCCCC2)cn1 [Compound 196, 5-((2-(1-cyclohexyl-1H-pyrazol-5-yl)pyridin-3-yl)methoxy)-2-methoxyisonicotinaldehyde] | ++ (a delta p50% of between 30 and 50) |
| ++ (a delta p50% of between 30 and 50) | – | ++ (a delta R of between 30 and 50) | COc1cc(C=O)c(OCc2cncc(C(=O)O)c2)cn1 [Compound 79, 5-((4-formyl-6-methoxypyridin-3-yloxy)methyl)nicotinic acid] | + (a delta p50% of between 0 and 29) |
| +++ (a delta p50% of 50 or greater) | – | – | COc1cc(C=O)c(OCc2nccc3ccccc23)cn1 [Compound 44, 5-(isoquinolin-1-ylmethoxy)-2-methoxyisonicotinaldehyde] | + (a delta p50% of between 0 and 29) |
| ++ (a delta p50% of between 30 and 50) | – | + (a delta R of between 0 and 30) | COc1cc(C=O)c(OCc2cccnc2-c2nn[nH]n2)cn1 [Compound 131, 5-((2-(2H-tetrazol-5-yl)pyridin-3-yl)methoxy)-2-methoxyisonicotinaldehyde] | + (a delta p50% of between 0 and 29) |
| ++ (a delta p50% of between 30 and 50) | ++ (a delta R of between 30 and 50) | – | COCCOc1cc(C=O)c(OCc2cccnc2-c2ccnn2C)cn1 [Compound 184, 2-(2-methoxyethoxy)-5-((2-(1-methyl-1H-pyrazol-5-yl)pyridin-3-yl)methoxy)isonicotinaldehyde] | +++ (a delta p50% of 50 or greater) |
| – | – | – | COCCOc1cc(C=O)c(OCc2cccnc2-c2ccnn2CCC(F)(F)F)cn1 [Compound 209, 2-(2-methoxyethoxy)-5-((2-(1-(3,3,3-trifluoropropyl)-1H-pyrazol-5-yl)pyridin-3-yl)methoxy)isonicotinaldehyde] | + (a delta p50% of between 0 and 29) |
